Test results taken from patent US20220062310A1, “[…] PATIENTS WITH OBSESSIVE-COMPULSIVE DISORDER” (YALE UNIVERSITY, priority 2020, published 2022).

What was measured:
[1] = system: patients with treatment resistant OCD; experiment: Same OCD study: state and trait anxiety scores (STAI); format: in vivo, human; settings: single dose 0.25 mg/kg
Text: (§1) Research Materials and Measures: Participants can complete self-report and clinician-administered measures of OCD symptoms, anxiety, depression, quality of life, and spirituality at baseline, prior to psilocybin session, and during all designated study visits. […]

[2] = non-medical use as mushrooms; cited from earlier work
OCD symptoms = settings: low doses (2 mg-4 mg); cited from earlier work
[3] = system: patients with treatment resistant OCD; experiment: Same OCD study: depression scores (Montgomery-Asberg Depression Rating Scale); format: in vivo, human; settings: single dose 0.25 mg/kg; scores not high in most subjects
Text: as §1

rats = settings: cited from earlier work
humans [4] = settings: oral doses of up to 0.6 mg/kg; cited from earlier work
humans [5] = settings: pure psilocybin; cited from earlier work
mice = settings: cited from earlier work
[6] = system: serotonin 5-hydroxytryptamine (5-HT) receptors; settings: after conversion in the body to psilocin; most affinity to 5-HT2A and 5-HT2C, lesser to 5-HT1A; cited from earlier work
humans [7] = experiment: Estimated lethal dose of pure psilocybin in humans; settings: 0.25 mg/kg versus LD50 in nonhuman animals and in humans
[8] = system: patients with treatment resistant OCD; experiment: Double-blind, placebo controlled study of psilocybin in OCD (NCT03356483): acute-YBOCS / YBOCS
study participants = settings: cited from earlier work

In the case of CN(C)CCc1c[nH]c2cccc(OP(=O)(O)O)c12 [psilocybin, 3-(2-dimethylaminoethyl)-1H-indol-4-yl] dihydrogen phosphate], the “state anxiety scores (FIG. 6)” value [1] is given as “improved in those subjects whose OCD symptoms also improved”, the “share of drug-related emergency department visits that mention it” value [2] is given as 0.1% and the “acute effect on OCD symptoms” value (OCD symptoms) is given as “acutely attenuated OCD symptoms even after low doses”. For the same molecule, the “depression scores (MADRS, FIG. 5)” value [3] was “improved after psilocybin in several subjects”, the LD50 (rats) was 285 mg/kg and the serious adverse events (humans [4]) was “no serious adverse events”. For the same molecule, the “best estimate of a lethal dose” value (humans [5]) was “about 19 grams”, the LD50 (mice) was 285 mg/kg and the “action at 5-HT receptors” value [6] was “partial agonist”. The “full study dose relative to LD50” value (humans [7]) was “over 100 times smaller”, the “improvement in OCD symptoms after psilocybin in subjects who had previously received placebo (FIG. 4)” value ([8]; open-label, one of three subjects, 12 weeks follow-up) was “robust and lasting improvement in symptoms” and the “persistence of the improvement in symptoms” value ([8]; single dose 0.25 mg/kg, the three improved subjects) was 12 weeks. For the same molecule, the “improvement in OCD symptoms (YBOCS, FIG. 2 and 3)” value ([8]; single dose 0.25 mg/kg, three of the subjects receiving psilocybin) was “robust improvement in symptoms”, the “acute-YBOCS score (M) at 48-hours after drug administration” value ([8]; single oral dose 0.25 mg/kg, N=5, baseline M=25.5 (18 to 29), SD=11.52, t(3)=2.71, p=0.036) was 15 and the “reactions requiring pharmacological intervention” value (study participants; 30 mg psilocybin) was “no reactions requiring pharmacological intervention occurred”. The “rates of prolonged psychiatric symptoms of any kind following exposure” value (study participants; healthy study participants) was 0.08-0.09%, the “participants with distress sufficient to contact the researchers” value (study participants; meta-analysis, 110 research participants (1 participant)) was 0.9% and the “participants who endorsed negative changes in psychological well-being” value (study participants; meta-analysis, 110 research participants) was 7 participants. The “duration of common acute side effects” value (study participants; most effects) was “last no longer than six hours”, the “adverse events associated with drug administration” value (study participants; over 2000 participants under controlled conditions) was “no reports of the occurrence of a significance of adverse events” and the “subjects with persistent perceptual symptoms associated with HPPD” value (study participants; review of studies 1999 to 2008, mild, brief, resolved within three days) was “one subject (out of 110)”.
